Measurements published in patent US20070031902A1, “Predictive Methods For Cancer Chemotherapy” (priority 2005, published 2007).
Entries after “also recorded” stand apart in the source; their conditions may differ.

What was measured:
Format in all cases: cell-based, human
p4EBP1 = test: IHC and image analysis of p4EBP1 under DFO-induced hypoxia; conditions: Jurkat cells, 50 μM DFO overnight vs vehicle
Protocol: (§1) These markers were evaluated by immunohistochemistry (“IHC”) and image analysis in the presence of Desferrioxarnine (“DFO”)-induced hypoxia, as well as in its absence, or normoxia. DFO is an iron-chelating agent known to induce hypoxia, and was used in these experiments as a model for hypoxia. All IHC analyses were carried out on either the BenchMark XT® or Discovery XT® (Ventana Medical Systems, Inc., Tucson Ariz. (“VMSI”)) staining platforms. Primary antibodies were obtained from commercial sources (See Table 1). Controls were vehicle treated. […] Primary antibodies were detected using the DABMapTM, OmniMapTM (Discovery XT®), or iViewTM DAB (BenchMark XT®) detection kit according to the manufacturer's instructions. […] Detection Kit detected specific mouse IgG, IgM and rabbit IgG antibodies bound to an antigen in paraffin-embedded or frozen tissue section. […] Staining intensities, percentage of reactive cells, and cellular localization were recorded. […] Slides were reviewed and scored by the pathologist prior to quantitation by optical imaging. For optical imaging, a digital application (VMSI) with image quantification based on the intensity (expressed as average optical density, or avg. OD) of the stain converted to a numerical score was utilized. […]

pMEK = test: IHC and image analysis of pMEK under DFO-induced hypoxia; conditions: Jurkat cells, 50 μM DFO overnight vs vehicle
Protocol: as §1

pS6 = test: IHC and image analysis of pS6 under DFO-induced hypoxia; conditions: Jurkat cells, 50 μM DFO overnight vs vehicle
Protocol: These markers were evaluated by immunohistochemistry (“IHC”) and image analysis in the presence of Desferrioxarnine (“DFO”)-induced hypoxia, as well as in its absence, or normoxia. DFO is an iron-chelating agent known to induce hypoxia, and was used in these experiments as a model for hypoxia. All IHC analyses were carried out on either the BenchMark XT® or Discovery XT® (Ventana Medical Systems, Inc., Tucson Ariz. (“VMSI”)) staining platforms. Primary antibodies were obtained from commercial sources (See Table 1). Controls were vehicle treated. […] Primary antibodies were detected using the DABMapTM, OmniMapTM (Discovery XT®), or iViewTM DAB (BenchMark XT®) detection kit according to the manufacturer's instructions. […] Detection Kit detected specific mouse IgG, IgM and rabbit IgG antibodies bound to an antigen in paraffin-embedded or frozen tissue section. […]

HIF-1α [1] = test: IHC and image analysis of HIF-1α in Jurkat cells under DFO-induced hypoxia; conditions: 50 μM DFO overnight vs vehicle
Protocol: as §1

pmTOR = test: IHC and image analysis of pmTOR under DFO-induced hypoxia; conditions: Jurkat cells, 50 μM DFO overnight vs vehicle
Protocol: as §1

pAKT = test: IHC and image analysis of pAKT under DFO-induced hypoxia; conditions: Jurkat cells, 50 μM DFO overnight vs vehicle
Protocol: as §1

pTSC2 = test: IHC and image analysis of pTSC2 under DFO-induced hypoxia; conditions: Jurkat cells, 50 μM DFO overnight vs vehicle
Protocol: as §1

mTOR = test: IHC and image analysis of mTOR under DFO-induced hypoxia; conditions: 50 μM DFO overnight vs vehicle; consistently high
Protocol: as §1

pERK (p44/p42) = test: IHC and image analysis of pERK (p44/p42) under DFO-induced hypoxia; conditions: 50 μM DFO overnight vs vehicle; negative in Jurkat cells, positive in HT1080 cells
Protocol: as §1

HIF-1α [2] = test: IHC and image analysis of HIF-1α in HT1080 cells (DFO, PX-478 dose escalation); conditions: DFO vs vehicle
HIF-1α [3] = test: FACS of hypoxia-induced HIF-1α expression in Jurkat tumor cell line; conditions: after treatment with DFO
Protocol: FIG. 6 illustrates the fluorescence-activated cell sorting (FACS) results of hypoxia-induced HIF-1α expression in a Jurkat tumor cell line. IHC was conducted and assessed according to the procedures detailed in Example 1. Western Blotting and FACS analysis were conducted using standard conditions.

In the case of `CC(=O)N(O)CCCCCNC(=O)CCC(=O)N(O)CCCCCNC(=O)CCC(=O)N(O)CCCCCN` [DFO, desferrioxamine], the “p4EBP1 expression (IHC)” value (p4EBP1) is reported as “decrease in expression”, the “pMEK expression (IHC)” value (pMEK) is reported as “decrease in expression” and the “pS6 expression (IHC)” value (pS6) is reported as “decrease in expression”. For the same molecule, the “HIF-1α expression (IHC)” value (HIF-1α [1]) was “increase in expression; also recorded: increased expression”, the “pmTOR expression (IHC)” value (pmTOR) was “increase in expression” and the “pAKT level of expression or activation (IHC)” value (pAKT) was “no change”. The “pTSC2 level of expression or activation (IHC)” value (pTSC2) was “no change”, the “level of mTOR (IHC)” value (mTOR) was “No change” and the “level of pERK (IHC)” value (pERK (p44/p42)) was “No change”. The “HIF-1α expression (IHC)” value (HIF-1α [2]) was “increased expression” and the “HIF-1α (FACS)” value (HIF-1α [3]) was “increase in HIF-1α”.
